Measured values reported in USRE48687E1, “Pyridinylaminopyrimidine derivatives, preparation process and use thereof” (Shanghai Allist Pharmaceuticals Co., Ltd., priority 2014, dated 2021).

Columns and labels:
Format in all cases: cell-based
[1] = system: human lung cancer cell (H1975, EGFR L858R/T790M resistant mutation); assay: Proliferation inhibition (SRB) on human lung cancer cell H1975; details: Homo sapiens, NCI-H1975, 72 h, SRB staining
Excerpt: (§1) The pharmacodynamic action of the compound of the present invention in terms of inhibiting the proliferation of cancer cells may be assayed by conventional methods. […] Inhibition ratio (%)=[(blank control OD−inhibitor OD)/blank control OD]×100%
(§2) Blank control OD: the OD value of the well of normally growed cells without the action of a drug.
(§3) Inhibitor OD: the OD value of the well of cells with the action of the added compounds to be screened.
(§4) The median inhibitory concentration (IC50) value is obtained by the software GraphPad Prism 5.0 by the 4-parameter logistic curve fit calculation. Each experiment is repeated three times, and the average IC50 value for three experiments is used as the final index for the inhibitory ability.
(§5) Cells in the logarithmic phase were inoculated to 96-well culture plates (cell density: 5000/well, cell suspension: 180 μl/well), and cultured at 37° C. under 5% CO2 for 24 hours. After the culturing, the cells adhered to the well walls. Each of compounds was dissolved in DMSO in advance to formulate a […] stock solution. Upon testing, the stock solution was diluted with complete medium to 10 times the target concentration in another 96-cell plate. And then the compound was added at 20 μl/cell in the 96-well plate in which the cells were inoculated, i.e. the target concentration could be reached. The well for each concentration was triplicated, and the blank control was established. Cells continued to be cultured at 37° C. under 5% CO2 for 72 hours. After the termination of culturing, 50 μl pre-cooled (4° C.) 50% trichloroacetic acid, i.e., TCA was added to each of wells (final concentration=10%), and was placed at 4° C. for 1 hour to fix the cells. The resulting matter was washed with purified water for at least 5 times, and dried naturally in air or at 60° C. in an oven. 4 mg/ml Sulforhodamine B (SRB) solution prepared by 1% glacial acetic acid/purified water was added at 100 μl/well to each well so as to stain for 1 hour at room temperature. The supernatant was discarded. The residue was washed with 1% acetic acid for at least 5 times to remove the non-specifically binding, and dried for use. To each well was added 150 μl of 10 mM Tris-HCl solution for dissolving the contents therein.

[2] = system: human lung cancer cell (HCC827, EGFR Exon 19 deletion activating mutation); assay: Proliferation inhibition (SRB) on human lung cancer cell HCC827; details: Homo sapiens, HCC827, 72 h, SRB staining
Excerpt: as §1, §2, §3, §4, §5

[3] = system: human skin cancer cell (A431, wild-type EGFR); assay: Proliferation inhibition (SRB) on human skin cancer cell A431; details: Homo sapiens, A-431, 72 h, SRB staining
Excerpt: as §1, §2, §3, §4, §5

IC50 [1] [nM]	IC50 [2] [nM]	IC50 [3] [nM]	SMILES
30.7	3.08	1140	C=CC(=O)Nc1cc(Nc2ncc(Cl)c(-c3cnc(N)nc3)n2)c(OC(C)C)nc1N(C)CCN(C)C [Example 23 compound, N-{2-{[2-(dimethylamino)ethyl](methyl)amino}-6-isopropyloxy-5-{[5-chloro-2′-amino-(4,5′-bipyrimidine)-2-yl]amino}pyridin-3-yl}acrylamide]
5.32	2.62	209	C=CC(=O)Nc1cc(Nc2ncc(F)c(-c3cn(C)c4ccc(F)cc34)n2)c(OC(C)C)nc1N(C)CCN(C)C [Example 10 compound, N-{2-{[2-(dimethylamino)ethyl](methyl)amino}-6-isopropyloxy-5-{5-fluoro-[4-(1-methyl-5-fluoro-1H-indol-3-yl)pyrimidin-2-yl]amino}pyridin-3-yl}acrylamide]
5.43	1.45	273	C=CC(=O)Nc1cc(Nc2ncc(Cl)c(-c3cn(C)c4ccccc34)n2)c(OC(C)C)nc1N(C)CCN(C)C [Example 16 compound, N-{2-{[2-(dimethylamino)ethyl](methyl)amino}-6-isopropyloxy-5-{5-chloro-[4-(1-methyl-1H-indol-3-yl)pyrimidin-2-yl]amino}pyridin-3-yl}acrylamide methanesulfonate]
38	33.3	2760	C=CC(=O)Nc1cc(Nc2ncc(Cl)c(-c3cnc(OC)nc3)n2)c(OC(C)C)nc1N(C)CCN(C)C [Example 22 compound, N-{2-{[2-(dimethylamino)ethyl](methyl)amino}-6-isopropyloxy-5-{[5-chloro-2′-methoxy-(4,5′-bipyrimidine)-2-yl]amino}pyridin-3-yl}acrylamide]
16.7	1.4	307	C=CC(=O)Nc1cc(Nc2ncc(Cl)c(-c3cn(C)c4cc(F)ccc34)n2)c(OC(C)C)nc1N(C)CCN(C)C [Example 7 compound, N-{2-{[2-(dimethylamino)ethyl](methyl)amino}-6-isopropyloxy-5-{5-chloro-[4-(1-methyl-6-fluoro-1H-indol-3-yl)pyrimidin-2-yl]amino}pyridin-3-yl}acrylamide]
